According to ChEMBL document CHEMBL6096692, “Discovery of 2(1H)-Quinoxalinone Derivatives as Potent and Selective MAT2A Inhibitors for the Treatment of MTAP-Deficient Cancers” (J Med Chem, 2025):
Activity calls are given as the source filed them. No cut-off for these calls is given here.

Assays:
[1] = target: Voltage-gated inwardly rectifying potassium channel KCNH2 (Homo sapiens, UniProt Q12809); assay: Inhibition of hERG expressed in CHO cells incubated for 12 hrs by Qpatch assay; format: toxicity, cell-based
[2] = test system: B16-F10; assay: Antitumor activity against MTAP-knockout mouse B16-F10 cells implanted in mouse assessed as reduction in SAM level in plasma at 30 to 60 mg/kg, po administered for 10 days and measured after 12 hrs; format: functional, organism-based; details: dose 30-60 mg/kg, time 10.5 day
[3] = test system: MIA PaCa-2; assay: Antitumor activity against MTAP null human MIA PaCa-2 cells xenografted in mouse assessed as inhibition of SAM production in tumor at 30 to 60 mg/kg, po measured after 28 days; format: functional, organism-based; details: dose 30-60 mg/kg, time 28.0 day
[4] = test system: Daoy; assay: Antitumor activity against human Daoy cells xenografted in mouse assessed as tumor growth inhibition at 30 mg/kg, po measured after 28 days; format: functional, organism-based; details: time 28.0 day
[5] = test system: B16-F10; assay: Antiproliferative activity against mouse B16-F10 cells harboring wild type MTAP assessed as inhibition of cell viability measured for 96 hrs by SRB assay; format: functional, cell-based; details: B16-F10, 96 h
[6] = test system: B16-F10; assay: Antiproliferative activity against mouse B16-F10 cells harboring MTAP D220A mutant assessed as inhibition of cell proliferation measured for 96 hrs by SRB assay; format: functional, cell-based
[7] = AUC (0 to t) in male ICR mouse at 1 mg/kg, iv measured upto 36 hrs by LC-MS/MS analysis; format: ADME, organism-based; details: in vivo
[8] = test system: NCI-H838; assay: Antiproliferative activity against MTAP null human NCI-H838 cells assessed as inhibition of cell viability measured for 96 hrs by SRB assay; format: functional, cell-based
[9] = test system: MIA PaCa-2; assay: Antitumor activity against MTAP null human MIA PaCa-2 cells xenografted in mouse assessed as inhibition of SAM production in plasma at 30 to 60 mg/kg, po measured after 28 days; format: functional, organism-based; details: dose 30-60 mg/kg, time 28.0 day
[10] = test system: B16-F10; assay: Antiproliferative activity against MTAP knockout mouse B16-F10 cells assessed as inhibition of cell proliferation measured for 96 hrs by SRB assay; format: functional, cell-based
[11] = AUC (0 to t) in male ICR mouse at 10 mg/kg, po measured upto 36 hrs by LC-MS/MS analysis; format: ADME, organism-based; details: in vivo
[12] = test system: B16-F10; assay: Antitumor activity against MTAP-knockout mouse B16-F10 cells implanted mouse assessed as reduction in SAM level in tumor at 30 to 60 mg/kg, po administered for 10 days and measured after 12 hrs; format: functional, organism-based; details: dose 30-60 mg/kg, time 10.5 day
[13] = target: Protein arginine N-methyltransferase 5 (Homo sapiens) (UniProt O14744); assay: Inhibition of PRMT5 in MTAP-null human MIA PaCa-2 cells incubated for 24 hrs by Western blot analysis; format: cell-based
[14] = test system: MIA PaCa-2; assay: Antiproliferative activity against MTAP null human MIA PaCa-2 cells assessed as inhibition of cell viability measured for 96 hrs by SRB assay; format: functional, cell-based
[15] = Cmax in male ICR mouse at 10 mg/kg, po measured upto 36 hrs by LC-MS/MS analysis; format: ADME, organism-based; details: in vivo
[16] = test system: NCI-H1437; assay: Antiproliferative activity against MTAP null human NCI-H1437 cells assessed as inhibition of cell viability measured for 96 hrs by SRB assay; format: functional, cell-based
[17] = test system: B16-F10; assay: Antitumor activity against MTAP-knockout mouse B16-F10 cells implanted in mouse assessed as reduction in tumor volume at 30 to 60 mg/kg, po administered for 10 days and measured after 12 days; format: functional, organism-based; details: dose 30-60 mg/kg, time 22.0 day
[18] = test system: MDA-MB-231; assay: Antiproliferative activity against MTAP null human MDA-MB-231 cells assessed as inhibition of cell viability measured for 96 hrs by SRB assay; format: functional, cell-based
[19] = test system: MCF7; assay: Antiproliferative activity against MTAP null human MCF7 cells assessed as inhibition of cell viability measured for 96 hrs by SRB assay; format: functional, cell-based

Chain of Voltage-gated inwardly rectifying potassium channel KCNH2 (Q12809 whole entry): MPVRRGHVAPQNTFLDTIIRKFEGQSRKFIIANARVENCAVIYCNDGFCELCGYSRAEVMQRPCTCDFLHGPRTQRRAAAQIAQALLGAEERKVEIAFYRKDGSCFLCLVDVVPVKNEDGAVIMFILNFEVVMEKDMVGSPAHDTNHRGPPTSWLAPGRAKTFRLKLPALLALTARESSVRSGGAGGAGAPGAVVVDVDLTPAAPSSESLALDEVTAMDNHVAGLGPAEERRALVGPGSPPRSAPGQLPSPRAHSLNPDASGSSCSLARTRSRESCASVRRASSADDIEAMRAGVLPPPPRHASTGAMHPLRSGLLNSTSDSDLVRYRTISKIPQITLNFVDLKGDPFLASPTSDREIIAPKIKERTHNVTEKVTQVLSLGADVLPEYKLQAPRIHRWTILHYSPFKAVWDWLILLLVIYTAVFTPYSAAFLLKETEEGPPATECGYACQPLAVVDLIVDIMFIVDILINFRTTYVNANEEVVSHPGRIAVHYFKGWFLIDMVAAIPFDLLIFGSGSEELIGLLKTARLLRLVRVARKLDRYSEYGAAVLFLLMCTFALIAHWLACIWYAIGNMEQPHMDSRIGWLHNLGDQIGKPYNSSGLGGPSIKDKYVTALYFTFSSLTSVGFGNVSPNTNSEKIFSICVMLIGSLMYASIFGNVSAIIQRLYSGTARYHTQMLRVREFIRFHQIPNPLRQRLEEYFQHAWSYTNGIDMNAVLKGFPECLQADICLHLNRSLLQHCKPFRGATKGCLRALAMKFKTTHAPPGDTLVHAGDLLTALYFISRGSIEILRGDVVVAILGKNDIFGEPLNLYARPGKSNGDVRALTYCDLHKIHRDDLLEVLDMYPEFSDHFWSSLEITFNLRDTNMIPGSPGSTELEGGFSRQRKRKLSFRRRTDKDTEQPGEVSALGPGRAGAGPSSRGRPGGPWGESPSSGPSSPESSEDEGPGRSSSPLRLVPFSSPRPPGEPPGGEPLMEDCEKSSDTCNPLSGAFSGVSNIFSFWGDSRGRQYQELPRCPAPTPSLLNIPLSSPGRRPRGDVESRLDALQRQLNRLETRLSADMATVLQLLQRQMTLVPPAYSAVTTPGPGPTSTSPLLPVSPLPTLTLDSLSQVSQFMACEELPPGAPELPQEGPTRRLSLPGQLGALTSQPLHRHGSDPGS
Chain of Protein arginine N-methyltransferase 5 (Homo sapiens) (O14744 whole entry): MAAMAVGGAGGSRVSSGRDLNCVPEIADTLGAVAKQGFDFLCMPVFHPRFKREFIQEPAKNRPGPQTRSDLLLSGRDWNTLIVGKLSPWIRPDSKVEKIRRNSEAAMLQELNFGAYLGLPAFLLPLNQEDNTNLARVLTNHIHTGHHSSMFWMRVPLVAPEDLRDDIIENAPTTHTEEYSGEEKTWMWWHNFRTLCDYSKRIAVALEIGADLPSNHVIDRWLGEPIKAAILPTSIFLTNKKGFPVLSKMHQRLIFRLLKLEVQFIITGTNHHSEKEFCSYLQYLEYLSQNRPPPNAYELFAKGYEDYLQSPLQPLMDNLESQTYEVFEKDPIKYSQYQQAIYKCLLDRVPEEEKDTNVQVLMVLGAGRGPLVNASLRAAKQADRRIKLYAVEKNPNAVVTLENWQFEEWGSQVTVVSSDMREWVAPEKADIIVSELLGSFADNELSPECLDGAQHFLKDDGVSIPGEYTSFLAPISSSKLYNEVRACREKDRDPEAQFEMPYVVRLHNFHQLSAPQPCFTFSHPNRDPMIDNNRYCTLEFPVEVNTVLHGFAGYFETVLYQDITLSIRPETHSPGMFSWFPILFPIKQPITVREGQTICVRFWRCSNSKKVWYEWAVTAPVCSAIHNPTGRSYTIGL

- IC50 [5]: > 20 µM
- AUC(0-t) at 36 h [7]: 3100 ng·h/mL
- AUC(0-t) at 36 h [11]: 36500 ng·h/mL
- inhibition [13]: Active
- Cmax [15]: 2600 ng/mL
SMILES: Cn1cnc2ccc(-c3nc4ccc(C5CC5)cc4n(-c4ccc(OC(F)F)cc4)c3=O)cc21
- IC50 [1]: 38 µM
- Activity [2]: Active
- Activity [3]: Active
- TGI [4]: Active
- Activity [6]: inactive
- Activity [8]: Active
- Activity [9]: Active
- Activity [10]: Active
- Activity [12]: Active
- Activity [14]: Active
- Activity [16]: Active
- Activity [17]: Active
- Activity [18]: Active
- Activity [19]: Active
